Data reported in patent US6166049A, “Use of an antagonist of PPARα and PPARγ for the treatment of syndrome X” (SmithKline Beecham P.L.C., priority 1996, dated 2000).

Tests used:
C57 Bl/KsJ db/db mouse [1] = assay: Serum lipids in the genetically diabetic C57 Bl/KsJ db/db mouse; assay type: in vivo; settings: 0.3 umol/kg body wt, dietary admixture, after 14 days, *** p < 0.001, mean ± SD
Experimental: (§1) 2) Determination of Compound Efficacy on Blood Glucose and Plasma Lipids in the C57 Bl/KsJ db/db Mouse
(§2) This is paralleled by glycosuria and polyuria with a compensatory increase in water intake. Circulating serum triglycerides and free fatty acids are also elevated.
(§3) Compounds are administered by dietary admixture (powdered RM3 diet) for 14 days and blood glucose measured in samples taken from the tail vein of conscious non-fasted mice at appropriate intervals during the treatment period. After the 14 day treatment period, mice are killed by cervical dislocation and blood obtained from the severed jugular veins. Triglyceride and non-esterified fatty acids are measured in samples of serum obtained by centrifugation.

human PPARα = target: T1, human PPARα (Homo sapiens, UniProt Q07869); assay: hPPARα agonist activity, transactivation reporter gene assay; assay type: cell-based; settings: read-out: EC50 for activation of human PPARα
T1 construct: expressed in transfected cells
T1 sequence (Q07869 239-466 limits assumed): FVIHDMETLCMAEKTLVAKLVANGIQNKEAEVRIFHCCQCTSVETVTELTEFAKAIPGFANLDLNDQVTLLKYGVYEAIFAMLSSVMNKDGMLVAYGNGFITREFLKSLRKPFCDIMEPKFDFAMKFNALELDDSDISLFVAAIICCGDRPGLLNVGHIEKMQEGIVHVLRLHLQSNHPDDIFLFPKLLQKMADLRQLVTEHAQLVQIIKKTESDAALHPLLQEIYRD
From the text: (§4) PPARα and γ agonist activity may be assessed by use of the methodology, or similar methodology, to that disclosed by Lehmann et al: Journal of Biological Chem., 270, 12953-12956 (1995).
In one aspect PPARα agonist compounds are those which stimulate a PPAR alpha chimeric receptor consisting of the PPAR alpha ligand binding site linked to a suitable reporter gene construct such as luciferase or chloramphenicol acetyltransferase (CAT). This activity can be identified by using the methods outlined by Lehmann et al., ibid.
(a) PPARα agonist activity by detecting stimulation of a PPAR alpha chimeric receptor consisting of the PPAR alpha ligand binding site linked to a suitable reporter gene construct; and
A suitable PPARα chimeric receptor comprises the amino acids of the ligand binding domain, for example amino acids 281-468, of the human PPARα, fused to amino acids 1-147 (DNA binding domain) of the gal 4 yeast transcription factor.
(§5) A suitable reporter gene construct is a luciferase or chloramphenicol acetyltransferase (CAT).
A suitable luciferase reporter gene construct contains gal 4 DNA binding elements in HEK-293 cells.
1) Determination of hPPARα and hPPAR-γ Agonist Activity
(§6) Compound agonist effects at human PPARα and PPARγ were assessed using a transactivation reporter gene assay, based on that described by Lehman et al. (1995) J Biol Chem 270, 12953-12956.

human PPARγ = target: T2, human PPARγ (Homo sapiens, UniProt P37231); assay: hPPARγ agonist activity, transactivation reporter gene assay; assay type: cell-based; settings: read-out: EC50 for activation of human PPARγ
T2 construct: expressed in transfected cells
T2 sequence (P37231 173-476 isoform P37231-2): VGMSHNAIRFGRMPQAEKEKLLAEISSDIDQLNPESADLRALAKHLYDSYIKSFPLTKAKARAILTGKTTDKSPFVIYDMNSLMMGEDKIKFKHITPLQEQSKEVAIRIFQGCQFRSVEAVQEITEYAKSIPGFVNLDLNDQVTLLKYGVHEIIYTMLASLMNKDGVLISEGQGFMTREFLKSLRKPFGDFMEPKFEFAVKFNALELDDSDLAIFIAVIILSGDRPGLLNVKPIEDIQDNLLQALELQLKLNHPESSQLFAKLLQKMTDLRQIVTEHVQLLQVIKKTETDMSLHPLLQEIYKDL
From the text: as §4
In one aspect PPARγ agonist compounds are those which stimulate a PPARγ chimeric receptor containing the PPAR gamma ligand binding site linked to a suitable reporter gene construct such as luciferase or chloramphenicol acetyltransferase (CAT). This activity can be identified by using the methods of Lehmann et al. J Biol. Chem., ibid.
(b) PPARγ agonist activity by detecting stimulation of a PPARγ chimeric receptor containing the PPAR gamma ligand binding site linked to a suitable reporter gene construct such as luciferase or chloramphenicol acetyltransferase (CAT).
A suitable PPARγ chimeric receptor comprises the amino acids of the ligand binding domain, for example amino acids 173-476, of the human PPARγ receptor fused to amino acids 1-147 (DNA binding domain) of the gal 4 yeast transcription factor.
as §5
A suitable luciferase reporter gene construct contains gal 4 DNA binding elements in HEK-293 cells. […]
as §6

C57 Bl/KsJ db/db mouse [2] = assay: Blood glucose in the C57 Bl/KsJ db/db mouse; assay type: in vivo; settings: mean ± SD, n = 9-10; for Blood glucose, pre-dose: treated group before dosing (baseline)
Experimental: as §1, §2, §3

EC50 (human PPARα): 2.5 µM
EC50 (human PPARγ): 0.07 µM
Structure (SMILES): CN(CCOc1ccc(C[C@H](OCC(F)(F)F)C(=O)O)cc1)c1nc2ccccc2o1 [(S)-3-[4-[2-[N-(2-benzoxazolyl)-N-methylamino]ethoxy]phenyl]-2-(2,2,2-trifluoroethoxy)propanoic acid]
Serum non-esterified fatty acids (C57 Bl/KsJ db/db mouse [1]; control 2.58 ± 0.45): 1.28 ± 0.15 mmol/L
Serum triglycerides (C57 Bl/KsJ db/db mouse [1]; control 3.78 ± 1.34): 2.58 ± 0.45 mmol/L
Blood glucose, post dose (13 days) (C57 Bl/KsJ db/db mouse [2]; EXPT I, dietary admixture, 13 days, control 34.0 ± 7.9, *** p < 0.001): 11.0 ± 3.6 mmol/L
Blood glucose, pre-dose (C57 Bl/KsJ db/db mouse [2]; EXPT I, control 15.5 ± 3.7): 15.6 ± 4.0 mmol/L
Blood glucose, Day 1 (C57 Bl/KsJ db/db mouse [2]; EXPT II, dietary admixture, Day 1, control 17.2 ± 3.7): 14.1 ± 3.7 mmo/l
Blood glucose, Day 2 (C57 Bl/KsJ db/db mouse [2]; EXPT II, dietary admixture, Day 2, control 19.9 ± 2.7, ** p < 0.01): 15.0 ± 3.4 mmo/l
Blood glucose, Day 3 (C57 Bl/KsJ db/db mouse [2]; EXPT II, dietary admixture, Day 3, control 20.2 ± 3.9, *** p < 0.001): 12.2 ± 5.1 mmo/l
Blood glucose, Day 5 (C57 Bl/KsJ db/db mouse [2]; EXPT II, dietary admixture, Day 5, control 21.2 ± 1.9, *** p < 0.001): 11.3 ± 3.6 mmo/l
Blood glucose, Day 7 (C57 Bl/KsJ db/db mouse [2]; EXPT II, dietary admixture, Day 7, control 23.4 ± 2.0, *** p < 0.001): 11.7 ± 3.7 mmo/l
Blood glucose, pre-dose (C57 Bl/KsJ db/db mouse [2]; EXPT II, control 16.5 ± 2.9): 16.2 ± 4.3 mmo/l
